Several values for one entry are separate records, joined by “and”; a condition that tells them apart may be missing. Equal values may be shown once. Read-outs that look alike come from different tables or passages of the source. Marks after values point to notes of the source that are not given here.
Experiments:
Format in all cases: in vivo, human
[1] = phase I clinical plasma pharmacokinetics (noncompartmental); Reg 1: 3qw continuous; Reg 3: 3qw 2 weeks on/1 week off; conditions: human, plasma, oral; for Cmax: read-out: Cmax, Mean (SD); for AUC(0-t): read-out: AUClast, Mean (SD)
Procedure: Antitumor efficacy was assessed using computerised tomography (CT)/magnetic resonance imaging assessment at baseline and every 8 weeks until disease progression or the initiation of subsequent antineoplastic therapy or death, whichever occurred first. In addition, the criteria for determining confirmed partial response (PR) or complete response (CR) were required to be present for at least 4 weeks. Demographic and other baseline data and PK/PD parameters were summarised using descriptive statistics.[11] PK parameters were estimated using noncompartmental methods (Phoenix®, Pharsight, Mountain View, California, USA).

GDF-15 = assay: serum GDF-15 in patients (ELISA); conditions: fold change from baseline
Procedure: Serum growth differentiation factor-15 (GDF-15) was measured using the Quantikine ELISA kit (#DGD150, R&D Systems). Briefly, serum samples were diluted 1:4 and transferred to pre-coated plates. The assay was run with an 8-point standard curve, and absorbance was read at 450 nm. […] A coefficient of variation (CV%) < 20 between duplicates was considered acceptable.

platelets = assay: semi-mechanistic PK/PD model of platelet kinetics (thrombocytopenia)
Source text: A total of 1919 observations (924 plasma PK, 717 platelet, and 278 GDF-15 measurements) and 20 platelet transfusion events derived from 46 patients were included in the dataset (data cutoff, January 2016). […] We used the stochastic approximation of the expectation-maximisation (SAEM) algorithm[13] implemented in the Monolix software (version 4.3.2, Lixoft) to estimate the fixed (population-level typical values) and random (inter-individual variability) effects for each model parameter and a residual error.
A semi-mechanistic model mimicking hematopoietic cell maturation and regulation was developed to describe the time course of platelet kinetics and drug action on immature cells and modified from Friberg et al.[14] […] A schematic diagram of the PK and PK/PD models for platelets (thrombocytopenia) and for GDF-15 time-course relationship is presented in Supplementary Fig. S1. The equations for the respective models are provided in the Supplementary Material (Supplementary Data).
Models were evaluated based on the change in the Akaike’s information criterion (AIC) value, the convergence of the SAEM algorithm, the precision of the parameter estimates (NLME derived % relative standard error [RSE%]) and decreases in IIV and residual variability. Diagnostic plots were used to evaluate model adequacy, including evaluation of observations versus population and individual predicted (IPRED), and the distributions of conditional weighted residuals (CWRES) or normalised prediction distribution error (NPDE) versus time/observations or over time plots (Supplementary Figs. S2–S4). The predictive performance of the final models was evaluated by simulating 500 datasets using parameter estimates (fixed and random effects) and plotting a visual predictive check (Supplementary Fig. S5). For serum GDF-15, serum concentration levels above the upper limit of quantification (>50,000 pg/mL) were handled as right-censored data.
Schematic representation of the semi-physiological model mimicking the hematopoietic cell maturation and regulation of platelets (PLT). A self-renewing progenitor compartment (P1) is connected to transit compartments (P2, P3, P4) representing maturation process, and leading to a circulating blood compartment (P5). A systemic regulation mechanism (sFBK) mimics the increase in proliferation rate as PLT count decreases below baseline, while a local feedback (lFBK) mechanism mimics how the number of cells in the first compartment affects the proliferation of cells in subsequent compartments. This model includes a drug effect decoupled from systemic feedback. Drug effect involves both a direct (slpd∙C) and an indirect (slPi∙ESEP) diminution of the proliferation ability of progenitor cells, as well as an indirect effect on the systemic feedback through an effect compartment. PLT transfusion events (ut) are considered as a PLT transfusion dose in the circulating blood compartment.

[2] = 300 mg, 300 mg Reg.3, Cycle 1 Day 12, n 6
[3] = 500 mg, 500 mg Reg.3, Cycle 1 Day 12, n 5

Compound: COc1cc2c(cc1OC(C)C)[C@H](c1ccc(Cl)cc1)N(c1ccc(N(C)C[C@H]3CC[C@H](N4CCN(C)C(=O)C4)CC3)cc1)C(=O)C2 [CGM097]
- Cmax ([1]; 300 mg, 300 mg Reg.1, Cycle 1 Day 1, n 7): 5640 ng/mL
- AUC(0-t) ([1]; 300 mg, 300 mg Reg.1, Cycle 1 Day 8, n 5, Tlast=8h): 48400 ng·h/mL
- Cmax ([1]; 300 mg, 300 mg Reg.1, Cycle 1 Day 8, n 5): 7570 ng/mL
- AUC(0-t) ([1]; 300 mg, 300 mg Reg.1, Cycle 2 Day 1, n 4, Tlast=8h): 52400 ng·h/mL
- Cmax ([1]; 300 mg, 300 mg Reg.1, Cycle 2 Day 1, n 4): 8020 ng/mL
- AUC(0-t) ([1]; 300 mg, 300 mg Reg.3, Cycle 1 Day 1, n 6, Tlast=24h): 44300 ng·h/mL
- Cmax ([1]; 300 mg, 300 mg Reg.3, Cycle 1 Day 1, n 6): 3060 ng/mL
- AUC(0-t) ([1]; 300 mg, 300 mg Reg.3, Cycle 1 Day 8, n 6, Tlast=8h): 24500 ng·h/mL
- Cmax ([1]; 300 mg, 300 mg Reg.3, Cycle 1 Day 8, n 6): 3910 ng/mL
- AUC(0-t) [1, 2]: 166000 ng·h/mL
- Cmax [1, 2]: 4380 ng/mL
- AUC(0-t) ([1]; 300 mg, 300 mg Reg.3, Cycle 2 Day 1, n 4, Tlast=8h): 16400 ng·h/mL
- Cmax ([1]; 300 mg, 300 mg Reg.3, Cycle 2 Day 1, n 5): 2710 ng/mL
- AUC(0-t) ([1]; 400 mg, 400 mg Reg.1, Cycle 1 Day 1, n 4, Tlast=24h): 83600 ng·h/mL
- Cmax ([1]; 400 mg, 400 mg Reg.1, Cycle 1 Day 1, n 5): 4710 ng/mL
- AUC(0-t) ([1]; 400 mg, 400 mg Reg.1, Cycle 1 Day 8, n 3, Tlast=8h): 42900 ng·h/mL
- Cmax ([1]; 400 mg, 400 mg Reg.1, Cycle 1 Day 8, n 3): 6700 ng/mL
- AUC(0-t) ([1]; 400 mg, 400 mg Reg.1, Cycle 2 Day 1, n 5, Tlast=8h): 46800 ng·h/mL
- Cmax ([1]; 400 mg, 400 mg Reg.1, Cycle 2 Day 1, n 5): 6960 ng/mL
- AUC(0-t) ([1]; 500 mg, 500 mg Reg.3, Cycle 1 Day 1, n 6, Tlast=24h): 76100 ng·h/mL
- Cmax ([1]; 500 mg, 500 mg Reg.3, Cycle 1 Day 1, n 6): 4640 ng/mL
- AUC(0-t) ([1]; 500 mg, 500 mg Reg.3, Cycle 1 Day 8, n 4, Tlast=8h): 41800 ng·h/mL
- Cmax ([1]; 500 mg, 500 mg Reg.3, Cycle 1 Day 8, n 6): 7540 ng/mL
- AUC(0-t) [1, 3]: 503000 ng·h/mL
- Cmax [1, 3]: 10700 ng/mL
- AUC(0-t) ([1]; 500 mg, 500 mg Reg.3, Cycle 2 Day 1, n 6, Tlast=8h): 26800 ng·h/mL
- Cmax ([1]; 500 mg, 500 mg Reg.3, Cycle 2 Day 1, n 6): 4810 ng/mL
- AUC(0-t) ([1]; 700 mg, 700 mg Reg.3, Cycle 1 Day 1, n 5, Tlast=24h): 79100 ng·h/mL
- Cmax ([1]; 700 mg, 700 mg Reg.3, Cycle 1 Day 1, n 5): 5590 ng/mL
- AUC(0-t) ([1]; 700 mg, 700 mg Reg.3, Cycle 1 Day 8, n 4, Tlast=8h): 58200 ng·h/mL
- Cmax ([1]; 700 mg, 700 mg Reg.3, Cycle 1 Day 8, n 4): 9570 ng/mL
- AUC(0-t) ([1]; 700 mg, 700 mg Reg.3, Cycle 1 Day 12, n 2): 237000 ng·h/mL
- Cmax ([1]; 700 mg, 700 mg Reg.3, Cycle 1 Day 12, n 3): 9240 ng/mL
- AUC(0-t) ([1]; 700 mg, 700 mg Reg.3, Cycle 2 Day 1, n 4, Tlast=8h): 35800 ng·h/mL
- Cmax ([1]; 700 mg, 700 mg Reg.3, Cycle 2 Day 1, n 4): 5860 ng/mL
- Tmax ([1]; fasted state, across dose groups, read-out: median Tmax): 1.6 to 4.17 h
- serum GDF-15 (p53 pathway activation) (GDF-15): induction
- SlPi, Drug indirect thrombocytopenia potency through effect compartment (platelets; fixed): 0.0176 ^a mL/ng
- IIV (CV%) of slPi, early cell killing / drug thrombocytopenia potency parameter (platelets; in vivo): 314% and ~ 314%
- MMT, Mean maturation time of drug affected cells (platelets; population estimate): 264 h
- SEP, Indirect effect thrombocytopenia potency power (platelets; population estimate): 0.74
- SlPd, Drug direct thrombocytopenia potency (platelets; population estimate): 3.93e-05 mL/ng
- cfr, Drug effect potency on systemic regulation (platelets; population estimate): -1.62 mL/ng

Source: paper PMC8405607 (British Journal of Cancer, 2021)
